According to the supplement of paper PMC11061612:

Tests used:
Experiment in all cases: combination Emax (second highest fraction inhibited in the dose matrix, 72 h); higher = more inhibition; extreme values may be limits of the assay
[1] = system: SU-DHL-8 (B-Cell Non-Hodgkin's Lymphoma)
In short: (§1)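 Cell lines in DMEM/F12 or RPMI with 10% FBS were plated in 1536-well plates, held 24 hours at 37°C, 5% CO2, then given two-drug dose matrices for 72 hours (DMSO typically 0.2%). Viability was read by CellTiter-Glo 2.0 luminescence and scaled as inhibition from 0 (vehicle wells) to 1 (blank wells). Combination Emax is the second-highest inhibition in the matrix; Bliss excess is observed combination effect minus expected EA + EB − EA·EB, EA and EB being single-agent effects.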

[2] = system: KCL-22 (Chronic Myelogenous Leukemia)
In short: as §1

[3] = system: KARPAS-45 (T-Lymphoblastic Leukemia)
In short: as §1

[4] = system: HDQ-P1 (Breast Carcinoma)
In short: as §1

[5] = system: BFTC-905 (Bladder Carcinoma)
In short: as §1

MEL-JUSO (Melanoma) = system: MEL-JUSO (Melanoma)
In short: as §1

[6] = system: KM12 (Colorectal Carcinoma)
In short: as §1

[7] = system: BL-41 (Burkitt's Lymphoma)
In short: as §1

LN-18 (Glioblastoma) = system: LN-18 (Glioblastoma)
In short: as §1

ES8 (Ewing's Sarcoma) = system: ES8 (Ewing's Sarcoma)
In short: as §1

[8] = system: HL-60 (Acute Myeloid Leukemia)
In short: as §1

[9] = system: SW1417 (Colorectal Carcinoma)
In short: as §1

CHP-212 (Neuroblastoma) = system: CHP-212 (Neuroblastoma)
In short: as §1

[10] = system: MS751 (Cervical Carcinoma)
In short: as §1

[11] = system: KYSE-180 (Esophageal Squamous Cell Carcinoma)
In short: as §1

[12] = system: GR-ST (B-Lymphoblastic Leukemia)
In short: as §1

[13] = system: SR (Other Blood Carcinomas)
In short: as §1

[14] = system: L-540 (Hodgkin's Lymphoma)
In short: as §1

[15] = system: PANC-08-13 (Pancreatic Carcinoma)
In short: as §1

NCI-H2818 (Mesothelioma) = system: NCI-H2818 (Mesothelioma)
In short: as §1

C=CCn1c(=O)c2cnc(Nc3ccc(N4CCN(C)CC4)cc3)nc2n1-c1cccc(C(C)(C)O)n1 [AZD1775] + C[C@@H]1COCCN1C2=NC(=NC(=C2)C3(CC3)[S@](=N)(=O)C)C4=C5C=CNC5=NC=C4 [AZD6738] (first compound max 1 µM, partner max 10 µM)
combination Emax [1]: 0.903
combination Emax [2]: 1
combination Emax [3]: 1
combination Emax [4]: 0.76
combination Emax [5]: 0.964
combination Emax (MEL-JUSO (Melanoma)): 0.496
combination Emax [6]: 0.852
combination Emax [7]: 1
combination Emax (LN-18 (Glioblastoma)): 0.736
combination Emax (ES8 (Ewing's Sarcoma)): 0.905
combination Emax [8]: 0.893
combination Emax [9]: 0.655
combination Emax (CHP-212 (Neuroblastoma)): 0.823
combination Emax [10]: 0.428
combination Emax [11]: 0.939
combination Emax [12]: 0.78
combination Emax [13]: 1
combination Emax [14]: 0.941
combination Emax [15]: 0.373
combination Emax (NCI-H2818 (Mesothelioma)): 0.475

C=CCn1c(=O)c2cnc(Nc3ccc(N4CCN(C)CC4)cc3)nc2n1-c1cccc(C(C)(C)O)n1 [AZD1775] + C1CN(CCC1(C(=O)N[C@@H](CCO)C2=CC=C(C=C2)Cl)N)C3=NC=NC4=C3C=CN4 [Capivasertib] (first compound max 3 µM, partner max 3 µM)
combination Emax [1]: 0.953
combination Emax [2]: 0.962
combination Emax [3]: 0.962
combination Emax [4]: 0.856
combination Emax [5]: 0.904
combination Emax (MEL-JUSO (Melanoma)): 0.442
combination Emax [6]: 0.872
combination Emax [7]: 0.993
combination Emax (LN-18 (Glioblastoma)): 0.581
combination Emax (ES8 (Ewing's Sarcoma)): 0.943
combination Emax [8]: 0.849
combination Emax [9]: 0.544
combination Emax (CHP-212 (Neuroblastoma)): 0.859
combination Emax [10]: 0.899
combination Emax [11]: 0.8
combination Emax [12]: 0.818
combination Emax [13]: 0.999
combination Emax [14]: 0.862
combination Emax [15]: 0.544
combination Emax (NCI-H2818 (Mesothelioma)): 0.493

Cc1c2c(nn1C)CSCc1cc(n(C)n1)CSc1cc(c3ccccc3c1)OCCCc1c(C(=O)O)n(C)c3c-2c(Cl)ccc13 [AZD5991] + C1CN(CCC1(C(=O)N[C@@H](CCO)C2=CC=C(C=C2)Cl)N)C3=NC=NC4=C3C=CN4 [Capivasertib] (first compound max 1 µM, 7x7, partner max 3 µM)
combination Emax [1]: 0.673
combination Emax [2]: 0.981
combination Emax [3]: 1
combination Emax [4]: 0.232
combination Emax [5]: 0.206
combination Emax (MEL-JUSO (Melanoma)): 0.346
combination Emax [6]: 0.553
combination Emax [7]: 1
combination Emax (LN-18 (Glioblastoma)): 0.409
combination Emax (ES8 (Ewing's Sarcoma)): 0.679
combination Emax [8]: 1
combination Emax [9]: 0.208
combination Emax [10]: 0.855
combination Emax [11]: 0.922
combination Emax [12]: 0.38
combination Emax [13]: 0.993
combination Emax [14]: 1
combination Emax [15]: 0.15
combination Emax (NCI-H2818 (Mesothelioma)): 0.258

CN(CCO)CC[C@H](CSc1ccccc1)Nc1ccc(S(=O)(=O)NC(=O)c2ccc(N3CCC([C@@H](O)c4ccccc4-c4ccc(Cl)cc4)CC3)cc2)cc1S(=O)(=O)C(F)(F)F [AZD4320] + C[C@@H]1COCCN1C2=NC(=NC(=C2)C3(CC3)[S@](=N)(=O)C)C4=C5C=CNC5=NC=C4 [AZD6738] (first compound max 1 µM, 7x7, partner max 10 µM)
combination Emax [1]: 1
combination Emax [2]: 0.976
combination Emax [3]: 1
combination Emax [4]: 0.745
combination Emax [5]: 0.926
combination Emax (MEL-JUSO (Melanoma)): 0.642
combination Emax [6]: 0.764
combination Emax [7]: 1
combination Emax (LN-18 (Glioblastoma)): 0.847
combination Emax (ES8 (Ewing's Sarcoma)): 1
combination Emax [8]: 0.95
combination Emax (CHP-212 (Neuroblastoma)): 0.82
combination Emax [10]: 0.378
combination Emax [11]: 0.747
combination Emax [12]: 0.745
combination Emax [13]: 0.982
combination Emax [14]: 0.969
combination Emax [15]: 0.636
combination Emax (NCI-H2818 (Mesothelioma)): 0.567

CCc1c2c(nc3ccc(O)cc13)-c1cc3c(c(=O)n1C2)COC(=O)[C@]3(O)CC [SN-38] + O=C(c1cc(Cc2n[nH]c(=O)c3ccccc23)ccc1F)N1CCN(C(=O)C2CC2)CC1 [Olaparib] (first compound max 0.3 µM, 7x7, partner max 10 µM)
combination Emax [2]: 0.887
combination Emax [4]: 0.702
combination Emax [5]: 0.974
combination Emax [6]: 0.681
combination Emax [7]: 1
combination Emax (ES8 (Ewing's Sarcoma)): 0.989
combination Emax [9]: 0.694
combination Emax [10]: 0.899
combination Emax [11]: 0.527
combination Emax [12]: 0.74
combination Emax [13]: 0.982
combination Emax [14]: 0.965
combination Emax [15]: 0.297
combination Emax (NCI-H2818 (Mesothelioma)): 0.359

C[C@@H](c1ccc2nccn2c1)n1nnc2ncc(-c3cnn(C)c3)nc21 [Savolitinib] + CN(CC[C@H](CSC1=CC=CC=C1)NC2=C(C=C(C=C2)S(=O)(=O)NC(=O)C3=CC=C(C=C3)N4CCC(CC4)[C@H](C5=CC=CC=C5C6=CC=C(C=C6)Cl)O)S(=O)(=O)C(F)(F)F)CCO [AZD4320] (first compound max 1 µM, 7x7, partner max 1 µM)
combination Emax [1]: 0.932
combination Emax [2]: 0.268
combination Emax [3]: 0.976
combination Emax [4]: 0.591
combination Emax (MEL-JUSO (Melanoma)): 0.257
combination Emax [6]: 0.139
combination Emax (LN-18 (Glioblastoma)): 0.163
combination Emax [8]: 0.856
combination Emax (CHP-212 (Neuroblastoma)): 0.178
combination Emax [10]: 0.184
combination Emax [11]: 0.13
combination Emax [15]: 0.394

CC(=O)c1c(C)c2cnc(Nc3ccc(N4CCNCC4)cn3)nc2n(C2CCCC2)c1=O [Palbociclib] + CN(CC[C@H](CSC1=CC=CC=C1)NC2=C(C=C(C=C2)S(=O)(=O)NC(=O)C3=CC=C(C=C3)N4CCC(CC4)[C@H](C5=CC=CC=C5C6=CC=C(C=C6)Cl)O)S(=O)(=O)C(F)(F)F)CCO [AZD4320] (first compound max 10 µM, 7x7, partner max 1 µM)
combination Emax [1]: 1
combination Emax [2]: 0.82
combination Emax [3]: 1
combination Emax [4]: 0.677
combination Emax (MEL-JUSO (Melanoma)): 0.356
combination Emax [6]: 0.768
combination Emax (LN-18 (Glioblastoma)): 0.517
combination Emax [8]: 0.956
combination Emax (CHP-212 (Neuroblastoma)): 0.829
combination Emax [10]: 0.159
combination Emax [11]: 0.462
combination Emax [15]: 0.384
